In patent US12410208B2, “(2-acetamidyl)thio-beta-D-galactopyranoside derivatives” (Idorsia Pharmaceuticals Ltd, priority 2020, dated 2025):
Where two headings read alike, the source gives them in different places.

Experiments:
human Gal-1 (hGal-1) = human Gal-1 (hGal-1) (Homo sapiens, UniProt P09382); assay: Competitive binding assay: biotinylated hGal-1 binding to microplate-adsorbed asialofetuin (ASF), spectrophotometric; conditions: hGal-1 binding to asialofetuin; Table 15; R and S epimers of selected Examples also listed; read-out: IC50 (Galectin-1 inhibition)
Method in brief: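 Spectrophotometric competition readout with ABTS after streptavidin-peroxidase (80 ng/mL, 1 h, 4 °C) detection of bound biotinylated hGal-1.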

[1] = target: biotinylated human Gal-3 (hGal-3) (Homo sapiens, UniProt P17931); assay: Competitive binding assay: biotinylated hGal-3 binding to microplate-adsorbed asialofetuin (ASF), spectrophotometric; conditions: Gal-3 inhibition, read-out: IC50
Method in brief: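 Serially diluted compounds competed with asialofetuin on the plate for biotinylated human Gal-3 during a 3 h incubation at 4° C. Streptavidin-peroxidase with ABTS gave the spectrophotometric signal. IC50 values were averaged over repeat runs.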

biotinylated human Gal-3 (hGal-3), sequence (P17931 whole entry): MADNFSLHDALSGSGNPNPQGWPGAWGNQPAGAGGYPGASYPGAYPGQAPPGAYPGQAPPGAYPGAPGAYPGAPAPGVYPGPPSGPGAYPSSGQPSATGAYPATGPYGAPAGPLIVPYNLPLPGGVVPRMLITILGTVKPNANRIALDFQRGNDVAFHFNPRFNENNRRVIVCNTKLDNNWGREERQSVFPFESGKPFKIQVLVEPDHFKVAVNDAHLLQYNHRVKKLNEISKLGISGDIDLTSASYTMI
human Gal-1 (hGal-1), sequence (P09382 whole entry): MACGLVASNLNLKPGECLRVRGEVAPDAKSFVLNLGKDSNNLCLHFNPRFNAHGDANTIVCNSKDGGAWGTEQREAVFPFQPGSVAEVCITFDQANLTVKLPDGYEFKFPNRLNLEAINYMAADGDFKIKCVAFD

Row | SMILES | IC50 (human Gal-1 (hGal-1)) [nM] | IC50 ([1]; Table 5) [nM] | IC50 ([1]; Table 4) [nM] | IC50 ([1]; Table 2) [nM]
1 | O=C(C(S[C@@H]1O[C@H](CO)[C@H](O)[C@H](n2cc(-c3cc(F)c(F)c(F)c3)nn2)[C@H]1O)C1(O)CCCC1)N1CCC1 (stereo partly drawn) [Example 2.38.206., 1-(Azetidin-1-yl)-2-(((2S,3R,4S,5R,6R)-3,5-dihydroxy-6-(hydroxymethyl)-4-(4-(3,4,5-trifluorophenyl)-1H-1,2,3-triazol-1-yl)tetrahydro-2H-pyran-2-yl)thio)-2-(1-hydroxycyclopentyl)ethan-1-one] | 770 | 230 |  | 
2 | CN(CC(F)(F)F)C(=O)C(S[C@@H]1O[C@H](CO)[C@H](O)[C@H](n2cc(-c3cc(F)c(F)c(F)c3)nn2)[C@H]1O)C1(O)CCCC1 (stereo partly drawn) [Example 2.38.219., 2-(((2S,3R,4S,5R,6R)-3,5-Dihydroxy-6-(hydroxymethyl)-4-(4-(3,4,5-trifluorophenyl)-1H-1,2,3-triazol-1-yl)tetrahydro-2H-pyran-2-yl)thio)-2-(1-hydroxycyclopentyl)-N-methyl-N-(2,2,2-trifluoroethyl)acetamide] | 110 | 40 |  | 
3 | CN(C(=O)C(S[C@@H]1O[C@H](CO)[C@H](O)[C@H](n2cc(-c3cc(F)c(F)c(F)c3)nn2)[C@H]1O)C1(O)CCCC1)C1CCC1 (stereo partly drawn) [Example 2.38.220., N-Cyclobutyl-2-(((2S,3R,4S,5R,6R)-3,5-dihydroxy-6-(hydroxymethyl)-4-(4-(3,4,5-trifluorophenyl)-1H-1,2,3-triazol-1-yl)tetrahydro-2H-pyran-2-yl)thio)-2-(1-hydroxycyclopentyl)-N-methylacetamide] | 20 | 30 |  | 
4 | CN(CC(C)(C)C)C(=O)C(S[C@@H]1O[C@H](CO)[C@H](O)[C@H](n2cc(-c3cc(F)c(F)c(F)c3)nn2)[C@H]1O)C1(O)CCCC1 (stereo partly drawn) [Example 2.38.228., 2-(((2S,3R,4S,5R,6R)-3,5-Dihydroxy-6-(hydroxymethyl)-4-(4-(3,4,5-trifluorophenyl)-1H-1,2,3-triazol-1-yl)tetrahydro-2H-pyran-2-yl)thio)-2-(1-hydroxycyclopentyl)-N-methyl-N-neopentylacetamide] | 170 | 150 |  | 
5 | CCN(C)C(=O)C(S[C@@H]1O[C@H](CO)[C@H](O)[C@H](n2cc(-c3cc(F)c(F)c(F)c3)nn2)[C@H]1O)C1(O)CCCCC1 (stereo partly drawn) [Example 2.39.203., 2-(((2S,3R,4S,5R,6R)-3,5-Dihydroxy-6-(hydroxymethyl)-4-(4-(3,4,5-trifluorophenyl)-1H-1,2,3-triazol-1-yl)tetrahydro-2H-pyran-2-yl)thio)-N-ethyl-2-(1-hydroxycyclohexyl)-N-methylacetamide] | 170 | 70 |  | 
6 | O=C(C(S[C@@H]1O[C@H](CO)[C@H](O)[C@H](n2cc(-c3cc(F)c(F)c(F)c3)nn2)[C@H]1O)C1(O)CCCCC1)N1CCCCC1 (stereo partly drawn) [Example 2.39.208., 2-(((2S,3R,4S,5R,6R)-3,5-Dihydroxy-6-(hydroxymethyl)-4-(4-(3,4,5-trifluorophenyl)-1H-1,2,3-triazol-1-yl)tetrahydro-2H-pyran-2-yl)thio)-2-(1-hydroxycyclohexyl)-1-(piperidin-1-yl)ethan-1-one] | 70 | 20 |  | 
7 | CN(CC(F)(F)F)C(=O)[C@H](S[C@@H]1O[C@H](CO)[C@H](O)[C@H](n2cc(-c3cc(F)c(F)c(F)c3)nn2)[C@H]1O)C1(O)CCCCC1 [Example 2.39.219R., (R)-2-(((2S,3R,4S,5R,6R)-3,5-Dihydroxy-6-(hydroxymethyl)-4-(4-(3,4,5-trifluorophenyl)-1H-1,2,3-triazol-1-yl)tetrahydro-2H-pyran-2-yl)thio)-2-(1-hydroxycyclohexyl)-N-methyl-N-(2,2,2-trifluoroethyl)acetamide] | 550 | 270 |  | 
8 | CN(CC(F)(F)F)C(=O)[C@@H](S[C@@H]1O[C@H](CO)[C@H](O)[C@H](n2cc(-c3cc(F)c(F)c(F)c3)nn2)[C@H]1O)C1(O)CCCCC1 [Example 2.39.219S., (S)-2-(((2S,3R,4S,5R,6R)-3,5-Dihydroxy-6-(hydroxymethyl)-4-(4-(3,4,5-trifluorophenyl)-1H-1,2,3-triazol-1-yl)tetrahydro-2H-pyran-2-yl)thio)-2-(1-hydroxycyclohexyl)-N-methyl-N-(2,2,2-trifluoroethyl)acetamide] | 100 | 60 |  | 
9 | CN(CC(C)(C)F)C(=O)C(S[C@@H]1O[C@H](CO)[C@H](O)[C@H](n2cc(-c3cc(F)c(F)c(F)c3)nn2)[C@H]1O)C1(O)CCCCC1 (stereo partly drawn) [Example 2.39.222., 2-(((2S,3R,4S,5R,6R)-3,5-Dihydroxy-6-(hydroxymethyl)-4-(4-(3,4,5-trifluorophenyl)-1H-1,2,3-triazol-1-yl)tetrahydro-2H-pyran-2-yl)thio)-N-(2-fluoro-2-methylpropyl)-2-(1-hydroxycyclohexyl)-N-methylacetamide] | 120 | 50 |  | 
10 | CN(CC(C)(C)F)C(=O)[C@H](S[C@@H]1O[C@H](CO)[C@H](O)[C@H](n2cc(-c3cc(F)c(F)c(F)c3)nn2)[C@H]1O)C1(O)CCCCC1 [Example 2.39.222R., (R)-2-(((2S,3R,4S,5R,6R)-3,5-Dihydroxy-6-(hydroxymethyl)-4-(4-(3,4,5-trifluorophenyl)-1H-1,2,3-triazol-1-yl)tetrahydro-2H-pyran-2-yl)thio)-N-(2-fluoro-2-methylpropyl)-2-(1-hydroxycyclohexyl)-N-methylacetamide] | 38100 | 10200 |  | 
11 | CN(CC(C)(C)F)C(=O)[C@@H](S[C@@H]1O[C@H](CO)[C@H](O)[C@H](n2cc(-c3cc(F)c(F)c(F)c3)nn2)[C@H]1O)C1(O)CCCCC1 [Example 2.39.222S., (S)-2-(((2S,3R,4S,5R,6R)-3,5-Dihydroxy-6-(hydroxymethyl)-4-(4-(3,4,5-trifluorophenyl)-1H-1,2,3-triazol-1-yl)tetrahydro-2H-pyran-2-yl)thio)-N-(2-fluoro-2-methylpropyl)-2-(1-hydroxycyclohexyl)-N-methylacetamide] | 90 | 20 |  | 
12 | CN1CCC(O)(C(S[C@@H]2O[C@H](CO)[C@H](O)[C@H](n3cc(-c4cc(F)c(F)c(F)c4)nn3)[C@H]2O)C(=O)N(C)Cc2ccccc2)CC1 (stereo partly drawn) [Example 2.40.207., N-Benzyl-2-(((2S,3R,4S,5R,6R)-3,5-dihydroxy-6-(hydroxymethyl)-4-(4-(3,4,5-trifluorophenyl)-1H-1,2,3-triazol-1-yl)tetrahydro-2H-pyran-2-yl)thio)-2-(4-hydroxy-1-methylpiperidin-4-yl)-N-methylacetamide] | 590 |  | 90 | 
13 | CN1CCC(O)(C(S[C@@H]2O[C@H](CO)[C@H](O)[C@H](n3cc(-c4cc(F)c(F)c(F)c4)nn3)[C@H]2O)C(=O)N2CCCCC2)CC1 (stereo partly drawn) [Example 2.40.208., 2-(((2S,3R,4S,5R,6R)-3,5-Dihydroxy-6-(hydroxymethyl)-4-(4-(3,4,5-trifluorophenyl)-1H-1,2,3-triazol-1-yl)tetrahydro-2H-pyran-2-yl)thio)-2-(4-hydroxy-1-methylpiperidin-4-yl)-1-(piperidin-1-yl)ethan-1-one] | 50 |  | 30 | 
14 | CN1CCC(O)(C(S[C@@H]2O[C@H](CO)[C@H](O)[C@H](n3cc(-c4cc(F)c(F)c(F)c4)nn3)[C@H]2O)C(=O)N2CCc3ccccc32)CC1 (stereo partly drawn) [Example 2.40.209., 2-(((2S,3R,4S,5R,6R)-3,5-Dihydroxy-6-(hydroxymethyl)-4-(4-(3,4,5-trifluorophenyl)-1H-1,2,3-triazol-1-yl)tetrahydro-2H-pyran-2-yl)thio)-2-(4-hydroxy-1-methylpiperidin-4-yl)-1-(indolin-1-yl)ethan-1-one] | 230 |  | 120 | 
15 | CC(C)CN(C)C(=O)C(S[C@@H]1O[C@H](CO)[C@H](O)[C@H](n2cc(-c3cc(F)c(F)c(F)c3)nn2)[C@H]1O)C1(O)CCOCC1 (stereo partly drawn) [Example 2.41.200., 2-(((2S,3R,4S,5R,6R)-3,5-Dihydroxy-6-(hydroxymethyl)-4-(4-(3,4,5-trifluorophenyl)-1H-1,2,3-triazol-1-yl)tetrahydro-2H-pyran-2-yl)thio)-2-(4-hydroxytetrahydro-2H-pyran-4-yl)-N-isobutyl-N-methylacetamide] | 260 |  |  | 60
16 | CC(C)CN(C)C(=O)[C@H](S[C@@H]1O[C@H](CO)[C@H](O)[C@H](n2cc(-c3cc(F)c(F)c(F)c3)nn2)[C@H]1O)C1(O)CCOCC1 [Example 2.41.200R., (R)-2-(((2S,3R,4S,5R,6R)-3,5-Dihydroxy-6-(hydroxymethyl)-4-(4-(3,4,5-trifluorophenyl)-1H-1,2,3-triazol-1-yl)tetrahydro-2H-pyran-2-yl)thio)-2-(4-hydroxytetrahydro-2H-pyran-4-yl)-N-isobutyl-N-methylacetamide] | 10900 |  |  | 4010
17 | CC(C)CN(C)C(=O)[C@@H](S[C@@H]1O[C@H](CO)[C@H](O)[C@H](n2cc(-c3cc(F)c(F)c(F)c3)nn2)[C@H]1O)C1(O)CCOCC1 [Example 2.41.200S., (S)-2-(((2S,3R,4S,5R,6R)-3,5-Dihydroxy-6-(hydroxymethyl)-4-(4-(3,4,5-trifluorophenyl)-1H-1,2,3-triazol-1-yl)tetrahydro-2H-pyran-2-yl)thio)-2-(4-hydroxytetrahydro-2H-pyran-4-yl)-N-isobutyl-N-methylacetamide] | 110 |  |  | 50
18 | CN(C)C(=O)C(S[C@@H]1O[C@H](CO)[C@H](O)[C@H](n2cc(-c3cc(F)c(F)c(F)c3)nn2)[C@H]1O)C1(O)CCOCC1 (stereo partly drawn) [Example 2.41.201., 2-(((2S,3R,4S,5R,6R)-3,5-Dihydroxy-6-(hydroxymethyl)-4-(4-(3,4,5-trifluorophenyl)-1H-1,2,3-triazol-1-yl)tetrahydro-2H-pyran-2-yl)thio)-2-(4-hydroxytetrahydro-2H-pyran-4-yl)-N,N-dimethylacetamide] | 1800 |  | 180 | 
